Data: US9308161B2, “Substance for restoring normal co-expression and interaction between the LOX and NRAGE proteins” (BASF Beauty Care Solutions France S.A.S., priority 2005, dated 2016)
Where “and” joins values, the source holds several entries; their conditions need not be identical. Identical values can stand only once.

What was measured:
[1] = test system: differentiated human keratinocytes; assay: Apoptosis by TUNEL in monolayer cultures of differentiated human keratinocytes, LOX activity inhibited; assay type: cell-based
Procedure: The study was carried out on monolayer cultures of differentiated human keratinocytes at confluence. The effect of LOX on apoptosis was identified by inhibiting its activity through the addition of β-APN (0.02% w/v—(weight/volume)) under normal or proapoptotic conditions (thermal shock caused by exposure to a temperature of 45° C.±0.5° C. for 1 h 30 min).
Cell death by apoptosis is detected and quantified using the TUNEL (terminal deoxynucleotidyl transferase mediated dUTP nick end labeling) technique, which is based on labeling of the […] accompanying apoptosis.
The first step consists in labeling the DNA breaks with TdT (terminal deoxynucleotidyl transferase), which catalyzes the polymerization of the fluorescein-labeled nucleotides at the free 3′-OH end of the DNA. The second step consists in detecting the incorporated fluorescein with an alkaline phosphatase-conjugated anti-fluorescein antibody after incubation with the substrate for the latter.
The experiment is validated by means of a positive control obtained by fragmentation of the DNA with a DNase solution, and a negative control obtained by depositing phosphate buffer.

[2] = test system: transglutaminase; assay: Transglutaminase immunolabelling intensity in reconstructed skin model (MIMESKIN); assay type: cell-based, human; conditions: positive control, calcium chloride 1.5 mM
Procedure: The reconstructed skin model is in particular achieved according to the following protocol: • 0.5 to 1.10^6 fibroblasts of normal human skin are sown on a matrix substrate based on collagen/glycosaminoglycan/chitosan, and then grown in a nutritive medium, for example DMEM-Glutamax supplemented with 10% of calf serum; ascorbic acid, preferably at a final concentration of 1 mM; EGF (epidermal grow factor), preferably at a final concentration of 10 ng/ml; Normocin, preferably at a final concentration of 100 μg/ml, for 21 days. • 0.5 to 1.10^6 […], and then grown in a nutritive medium, for example DMEM-Glutamax/Ham F-12 (ratio 3:1 v/v) supplemented with calf serum, ascorbic acid, preferably at a final concentration of 1 mM; EGF (epidermal growth factor), preferably at a final concentration of 10 ng/ml; hydrocortisone, preferably at a final concentration of 0.4 μg/ml; umuline, preferably at a final concentration of 0.12 IU/ml; isuprel, preferably at a final concentration of […]; triiodothyronine, preferably at a final concentration of 2.10^−9M; adenine, preferably at a final concentration of 24.3 μg/ml; Normocin, preferably at a final concentration of 100 μg/ml. The culture was continued for 7 days in an immersed condition. The cultures were then placed at the air-liquid interface for 14 additional days in the same medium as the immersion culture, except for the calf serum, hydrocortisone, isuprel, triidothyronine and umuline.
The active ingredient (ephedra extract) is advantageously diluted in the culture media described above at 0.5 and 1% and used 3 days after the respective sowing of fibroblasts and keratinocytes (i.e. days 3 to 21 and days 24 to 42). […]
Viewing of immunolabellings is performed under photon microscopy (Axioskop2plus—Zeiss, Germany) and quantification of the transglutaminase immunolabellings was performed by image analysis (Lucia—Nilon, France) and the effects of the treatment with the active ingredient are evaluated (Holm-Sidak statistical test, p<0.01).

[3] = test system: LOX; assay: LOX messenger RNA by quantitative RT-PCR, keratinocytes in culture in the absence of calcium differentiation (Example 15); assay type: cell-based, human; conditions: mRNA relative to actine vs untreated control (NT); 24 hours; no calcium differentiation; 0.1% to 1% (v/v)
Procedure: The actives were tested on normal human keratinocytes from young subjects, obtained by enzymatic extraction of human biopsies collected after surgical resection and cultivated as monolayers in a K-SFM (keratinocyte serum free medium with supplements) defined medium, supplemented with antibiotics at 37° C. under 5% CO2. The cells are sown at the second passage in 24-well plates, for example with an amount of 30 000 cells per cm^2 and grown until about 95% confluence. […] Active ingredients of different origins (vegetable, biotechnological origin or synthesized molecules for example) are tested from 0.1% volume/volume (v/v) to 1% (v/v). An active ingredient from vegetable origin is tested for example at 1% (v/v) and a synthesized molecule is tested for example at 0.1% (v/v) […] The obtained extracts are then filtered or distilled in order to recover the soluble fraction which is then filtered at 0.45 μm preferably. The biotechnological hydrolysates are obtained by fermentation of vegetable extracts in the presence of microorganisms, advantageously from the Lactobacillus or Saccharomyces family. These hydrolysates are then preferably filtered to 0.45 μm. The incubation is advantageously performed for 24 hours at 37° C. under 5% CO2, in a K-SFM medium without growth factors but with antibiotics. The negative controls are either the culture medium by itself, or the culture medium containing from 0.1% (v/v) to 1% (v/v) of the solvent used during the method for extracting the tested extracts. […] The untreated cells (NT control) are dry frozen at -80° C. after rinsing with pH 7.4 phosphate buffer. […] Modification of the expression of the genes is achieved by real time RT-PCR which measures the expression of each gene relative to actine (housekeeping gene) and expressed as a % of the untreated negative control (NT). […] According to the experimentation, the measuring threshold of C(T) (=cycle threshold) was set for T between 0.05 and 0.01 and then an arbitrary measuring unit is calculated for each gene according to the formula: […] […]

Compound: N#CCCN [β-APN, β-aminopropionitrile]
- Without thermal shock (% of labeled cells) ([1]; TUNEL, β-APN 0.02% w/v, normal conditions): 56% of labeled cells
- With thermal shock (% of labeled cells) ([1]; TUNEL, β-APN 0.02% w/v, thermal shock 45° C.±0.5° C. for 1 h 30 min): 81% of labeled cells
- effect on apoptosis ([1]; inhibition of the enzymatic activity of LOX by β-APN): substantial increase in apoptosis

Compound: [Ca+2].[Cl-].[Cl-] [Calcium, calcium chloride]
- INTENSITY Average [2]: 0.067
- Variation vs NT [2]: 59%
- INTENSITY of transglutaminase labelling (single values) ([2]; day 28-42): 0.061 and 0.076 and 0.064

Compound: CC/C=C/CC(=O)OCC [Ethyl trans 3-hexanoate]
- LOX modulation vs NT [3]: 2.3

Compound: CCC(C)C(=O)OC (stereo not drawn) [Methyl 2 methyl butyrate]
- LOX modulation vs NT [3]: 2.5

Compound: OC[C@@H](O)[C@H](O)[C@@H](O)CO [Xylitol]
- LOX modulation vs NT [3]: 2.8
